The record followed here is patent US20180371044A1, “PEPTIDOMIMETIC MACROCYCLES” (Aileron Therapeutics, Inc., priority 2015, published 2018).

pEC50: −log10 of the molar value. Where a SMILES comes first, the peptide text is derived from it. Bridges are numbered along the chain shown (N, C = ends). [ ]: non-standard residue; d: D form. NMeY = CN[C@@H](Cc1ccc(O)cc1)C(=O)O; S5 = C=CCCC[C@](C)(N)C(=O)O; Nle = CCCC[C@H](N)C(=O)O

One data set addresses T1, GHRHR (Homo sapiens, UniProt Q02643).
T1 construct: host or cells: CHO-K1 (cAMP Hunter eXpress GHRHR CHO-K1 GPCR assay kit)
T1 sequence (Q02643 23-423): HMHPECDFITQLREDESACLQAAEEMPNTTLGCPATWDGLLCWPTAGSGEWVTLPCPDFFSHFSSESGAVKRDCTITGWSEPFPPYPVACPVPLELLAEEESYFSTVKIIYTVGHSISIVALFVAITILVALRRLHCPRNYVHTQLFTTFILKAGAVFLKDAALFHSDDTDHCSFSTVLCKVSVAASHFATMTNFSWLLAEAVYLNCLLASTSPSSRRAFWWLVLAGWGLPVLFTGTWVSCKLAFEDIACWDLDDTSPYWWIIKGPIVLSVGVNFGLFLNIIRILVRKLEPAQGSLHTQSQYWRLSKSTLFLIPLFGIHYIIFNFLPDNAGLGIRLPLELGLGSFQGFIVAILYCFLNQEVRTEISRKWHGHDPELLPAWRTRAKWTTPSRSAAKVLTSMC
Kind of data set: DiscoverX cAMP Hunter eXpress GHRHR CHO-K1 GPCR assay. It is filed as cell-based. Conditions: for Selectivity: EC50 in VIPR1 CHO-K1 cells divided by EC50 in GHRHR CHO-K1 cells; for pEC50: GHRHR CHO-K1 cells, cAMP.

Data set [1] has as its target T2, VIPR1 (Vasointestinal Peptide Receptor 1) (Homo sapiens, UniProt P32241).
T2 construct: host or cells: CHO-K1 (cAMP Hunter eXpress VIPR1 CHO-K1 GPCR assay kit)
T2 sequence (P32241 31-457): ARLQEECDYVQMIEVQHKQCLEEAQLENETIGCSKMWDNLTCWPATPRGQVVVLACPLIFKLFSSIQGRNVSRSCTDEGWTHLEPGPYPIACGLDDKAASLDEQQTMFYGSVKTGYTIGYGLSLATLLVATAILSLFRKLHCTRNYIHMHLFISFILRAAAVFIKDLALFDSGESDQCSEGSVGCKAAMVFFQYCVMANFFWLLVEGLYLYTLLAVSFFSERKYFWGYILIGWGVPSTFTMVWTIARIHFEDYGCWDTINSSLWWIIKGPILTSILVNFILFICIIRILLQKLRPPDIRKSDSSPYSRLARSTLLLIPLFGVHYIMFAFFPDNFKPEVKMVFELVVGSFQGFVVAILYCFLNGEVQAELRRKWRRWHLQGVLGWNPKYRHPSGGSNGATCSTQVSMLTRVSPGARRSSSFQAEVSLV
Kind of data set: DiscoverX cAMP Hunter eXpress VIPR1 CHO-K1 GPCR assay. The class given is cell-based. Conditions: VIPR1 CHO-K1 cells. An excerpt: DiscoverX cAmP Hunter eXpress VIPRI CHO-K1 GPCR and GHRHR CHO-K1 GPCR assays kits were used. The DiscoverX kits contain naturally coupled GPCR cell lines designed to detect GPCR signaling through second messenger activation. This signaling involves a membrane bound enzyme called adenylate cyclase. […] receptors modulate cAMP by either inhibiting or stimulating adenylate cyclase, respectively. The DiscoverX cell lines included in the kits utilize the natural coupling status of the GPCR to monitor activation of […] receptors. Following ligand stimulation, the functional status of the GPCR is monitored by measuring cellular cAMP levels using a homogeneous, gain of signal competitive immunoassay based on Enzyme Fragment Complementation (EFC). The amount of EFC is measured by analysis with a fluorescent plate reader.
On the day before the assay, the DiscoverX cell lines were defrosted, plated into 384 well plates and allowed to incubate overnight. All the samples were diluted to 2 mM using 100% DMSO. The vials were sonicated and centrifuged to assure all peptides went into solution. The final volumes were small, 80-200 μl. An 80% purity and peptide content was assumed for all samples and dilutions were based on the molecular weights. On the day of the assay, the samples were diluted to 200 μM in water and then to 4 μM in DiscoverX assay buffer (supplemented with 0.1% BSA). Serial dilutions were performed on assay day, 16 dilutions from 1000 nM were run side by side in duplicate for each peptide for study. The assays were performed in the 384 well plates with the assistance of a CyBio Bi-Well 384 channel liquid handling robot. The samples were analyzed on a Tecan Ultra Evolution plate reader according to DiscoverX guidelines. The EC50 values were determined using GraphPad Prism software. The EC50 value is defined as the concentration of agonist that provokes a response halfway between the baseline and maximum response.
DiscoverX™ cAmP Hunter eXpress VIPR1 CHO-K1 GPCR and GHRHR CHO-K1 GPCR assay kits were used. On the day before the assay, the DiscoverX™ cell lines were defrosted, plated into 384 well plates and allowed to incubate overnight. All the samples were diluted to 2 mM using 100% DMSO. The vials were sonicated and centrifuged to assure all peptides went into solution. The final volumes were small, 80-200 μl. An 80% purity and peptide content was assumed for all samples and dilutions were based on the molecular weights. On the day of the assay, the samples were diluted to 200 μM in water and then to 4 μM in DiscoverX™ assay buffer (supplemented with 0.1% BSA). Serial dilutions were performed on assay day, 16 dilutions from 1000 nM were run side by side in duplicate for each peptide for study. The assays were performed in the 384 well plates with the assistance of a CyBio™ Bi-Well 384 channel liquid handling robot. The samples were analyzed on a Tecan™ Ultra Evolution plate reader according to DiscoverX™ guidelines. The EC50 values were determined using GraphPad™ Prism software. The EC50 value is defined as the concentration of agonist that provokes a response halfway between the baseline and maximum response. (+=>25 nM; ++=>10-25 nM; +++=>1-10 nM; ++++=>0.1-1 nM; +++++=<0.1 nM). […]

Data set [2] deals with T3, human GHRH receptor (hGHRHR) (Homo sapiens, UniProt Q02643).
T3 construct: expressed in transfected cells; host or cells: Human 293 cells
T3 sequence (Q02643 23-423): T1 sequence (Q02643 23-423)
Kind of data set: GHRHR agonism measured by cAMP (HTRF) in human 293 cells expressing hGHRHR.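 Also: receptor expressed transiently or stably, cells stimulated in serum-free medium, EC50 from a non-linear dose-response fit, maximal response defined by reference GHRH stimulation.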 The class given is cell-based. Conditions: 30 min at RT.

The nature of data set [3]: Solubility by measuring turbidity (OD600) in human plasma. It is filed as physicochemical. Here is the method: In some embodiments, a peptidomimetic macrocycle can be prepared based on solubility of the polypeptide, for example if the prepared peptidomimetic macrocycle is determined to be soluble based on visual examination of the turbidity of a solution of the polypeptide. In some embodiments, an aqueous solubility of the peptidomimetic macrocycle is determined by evaluating the turbidity of a solution comprising the peptidomimetic macrocycle. In some embodiments, a plasma solubility of the peptidomimetic macrocycle is determined by evaluating the turbidity of a solution comprising the peptidomimetic macrocycle.
Increasing amounts of SP-3 and SP-133 were added to human plasma. The OD600 of each of the solutions was then measured.

The next data set is described as follows: Plasma compatibility. The class given is physicochemical. Here is the method: The plasma compatibility of exemplary peptidomimetic macrocycles was also determined. Peptidomimetic macrocycles with a plasma compatability value (PC) that is greater than 0.1 were determined as being plasma compatible.

The term pEC50 denotes −log10 of the EC50, conventionally taken in molar units. For `CCCC[C@H](NC(=O)[C@@H](NC(=O)[C@]1(C)CCCC=CCCC[C@](C)(NC(=O)[C@H](CCCNC(=N)N)NC(=O)[C@H](C)NC(=O)[C@H](CO)NC(=O)[C@H](CC(C)C)NC(=O)[C@H](CCC(N)=O)NC(=O)CNC(=O)[C@H](CC(C)C)NC(=O)[C@@H](NC(=O)[C@H](CCCCN)NC(=O)[C@H](CCCNC(=N)N)NC(=O)[C@H](Cc2ccc(O)cc2)NC(=O)[C@H](CO)NC(=O)[C@]2(C)CCCC=CCCC[C@](C)(NC(=O)[C@H](CC(=O)O)NC(=O)[C@@H](C)NC(=O)[C@@H](N)Cc3ccc(O)cc3)C(=O)N[C@@H]([C@@H](C)CC)C(=O)N[C@@H](Cc3ccccc3)C(=O)N[C@@H]([C@@H](C)O)C(=O)N2)C(C)C)C(=O)N[C@@H](CC(C)C)C(=O)N[C@@H](CC(C)C)C(=O)N[C@@H](CCC(N)=O)C(=O)N1)[C@@H](C)CC)C(=O)N[C@@H](CO)C(=O)N[C@@H](CCCNC(=N)N)C(N)=O` [SP-3] (H-Y[dA]D[S5]IFT[S5]SYRKVLGQLSAR[S5]LLQ[S5]I[Nle]SR-NH2; staple 4-8, 21-25), the Selectivity result on GHRHR is “+++++ (+++++=>50)”. Also, the figures for the pEC50 (at GHRHR; in data set [1]; in data set [2]) were 9.00 to 10.00, 7.60 to 8.00 and 8.00 to 9.00, respectively. Moreover, the OD600 is listed as 0.8 in data set [3] (7 mg/mL); 1.0 in data set [3] (10 mg/mL); 1.2 in data set [3] (12 mg/mL); 1.2 in data set [3] (16 mg/mL); 1.4 in data set [3] (21 mg/mL); 1.6 in data set [3] (27 mg/mL). Besides, the OD600 in data set [3] (35 mg/mL) was determined as 1.6; in data set [3] (46 mg/mL) it was 1.7; in data set [3] (59 mg/mL), 1.8; in data set [3] (77 mg/mL), 1.7; in data set [3] (100 mg/mL), 1.5. Moreover, the “Plasma Compatability” value in “Plasma compatibility” is 0.9 mg/mL.
`CCCC[C@H](NC(=O)[C@@H](NC(=O)[C@H](CC(=O)O)NC(=O)[C@H](CCC(N)=O)NC(=O)[C@H](CC(C)C)NC(=O)[C@H](C)NC(=O)[C@H](CCCCN)NC(=O)[C@H](CCCNC(=N)N)NC(=O)[C@H](C)NC(=O)[C@H](CO)NC(=O)[C@]1(C)CCCC=CCCC[C@](C)(NC(=O)[C@H](CCCCN)NC(=O)[C@H](CCCNC(=N)N)NC(=O)[C@H](Cc2ccc(O)cc2)NC(=O)[C@H](CO)NC(=O)[C@H](C)NC(=O)[C@@H](NC(=O)[C@H](Cc2ccccc2)NC(=O)[C@@H](NC(=O)[C@H](C)NC(=O)[C@H](CC(=O)O)NC(=O)[C@H](C)NC(=O)[C@H](Cc2ccc(O)cc2)NC)[C@@H](C)CC)[C@@H](C)O)C(=O)N[C@@H](CC(C)C)C(=O)N[C@@H](C)C(=O)N[C@@H](CCC(N)=O)C(=O)N1)[C@@H](C)CC)C(=O)N[C@@H](CO)C(=O)N[C@@H](CCCNC(=N)N)C(N)=O` [SP-12] (H-[NMeY]ADAIFTASYRK[S5]LAQ[S5]SARKALQDI[Nle]SR-NH2; staple 13-17): on GHRHR, the Selectivity result is reported as “+ (+=<5)”. For the same compound, the pEC50 at GHRHR is above 10.00; in data set [1] it was above 10.00; in data set [2] it was at least 9.00. The “Plasma Compatability” value in “Plasma compatibility” is 1.6 mg/mL.
“SP-133: GHRH peptidomimetic macrocycle (YADAIFTASYRKALAQASARKALQDILSR; not fully specified; D-residues; non-natural residues; cyclised or stapled)”: in the data set with GHRHR, the Selectivity result was “++ (++=>5-15)”. Also, the pEC50 with GHRHR is 8.00 to 9.00; in data set [1], below 7.60. Further, the OD600 in data set [3] (7 mg/mL), in data set [3] (10 mg/mL), in data set [3] (12 mg/mL), in data set [3] (16 mg/mL), in data set [3] (21 mg/mL) and in data set [3] (27 mg/mL) was 0.0 throughout. Also, the OD600 in data set [3] (35 mg/mL), in data set [3] (46 mg/mL), in data set [3] (59 mg/mL), in data set [3] (77 mg/mL) and in data set [3] (100 mg/mL) was 0.0 throughout. The turbidity entry in data set [3] (up to 100 mg/mL) is recorded as “no turbidity”. For the same compound, the “Plasma Compatability” value in “Plasma compatibility” is above 10 mg/mL.
